Source: patent US12161656B2 (MELINTA SUBSIDIARY CORP., priority 2010, dated 2024)
Like-named read-outs stand apart in the source and are kept apart here.

Tests used:
[1] = tested on: rabbit red blood cells (RBCs)
[2] = Text: The solubility of four non-dimethlyamino tetracyclines, with and without Mg^2+, was examined.
[3] = tested on: Human umbilical vein endothelial cells (HUVEC); assay: Uptake of minocycline in HUVEC at various Mg/minocycline ratios (LCMS), Example 12; format: cell-based; settings: 1 mg/mL in saline, 30 min, Mg/minocycline ratios 0-25, FIGS. 6 and 7
Protocol: Cells and reagents: Human umbilical vein endothelial cells (HUVEC) were purchased from Lonza and maintained according to manufacturer's recommendations in EGM-2 media. A 10 mg/mL solution of minocycline was prepared in 13.6 mg/mL Na-acetate without addition of Mg. This stock solution was further diluted in saline to 1 mg/mL with addition of Mg in the form of 1 M MgSO4 to generate the following molar ratios of Mg to minocycline: 0, 1, 2.5, 5, 10, 25.
Uptake experimental conditions: HUVECs were seeded at 4.5×10^5 cells/well density in 6-well plates in EGM-2 media. Two days after seeding, cells were washed once with 2 mL of saline, and then 2 mL of 1 mg/mL drug solution in saline prepared as described above was placed in each well in triplicate. Plates were incubated in a CO2 incubator at 37° C. for 30 min. Drug solutions were aspirated and cells were washed once with 2 mL of saline. 0.5 mL of saline was placed in each well and the cell monolayer was scraped using a plastic cell scraper. Cell suspensions were transferred to 1.5 mL plastic tubes and sonicated for 30 sec at maximal power. Cell lysates were spun down for 10 min on a table top microcentrifuge at maximum speed and supernatants were collected. […]

[4] = tested on: rabbit red blood cells (RBCs); assay: In vitro hemolysis of rabbit red blood cells (in vitro model of venous phlebitis), Example 8; settings: Table 29, rabbit RBCs, 2.5 mg/ml minocycline solution, different molar ratios cation:minocycline

C[C@@H]1[C@H](O)[C@@H](C)/C=C/C=C/C=C/C=C/C=C/C=C/C=C/[C@H](O[C@@H]2O[C@H](C)[C@@H](O)[C@H](N)[C@@H]2O)C[C@@H]2O[C@](O)(C[C@@H](O)C[C@@H](O)[C@H](O)CC[C@@H](O)C[C@@H](O)CC(=O)O[C@H]1C)C[C@H](O)[C@H]2C(=O)O [Amphoterin B, Amphotericin B]
Hemolysis of RBCs in solution relative to water [1]: 101.31%
Hemolysis of RBCs in solution relative to water ([1]; pH 5.85): 101.31%

C[C@H]1c2cccc(O)c2C(=O)C2=C(O)[C@]3(O)C(=O)C(C(N)=O)=C(O)[C@@H](N(C)C)[C@@H]3[C@@H](O)[C@@H]21 [Doxycycline]
solubility (text summary of Table 36) [2]: is soluble in the absence of divalent cations, such as Mg^2+, but is insoluble in the presence of divalent cations at low pH

CN(C)c1ccc(O)c2c1C[C@H]1C[C@H]3[C@H](N(C)C)C(O)=C(C(N)=O)C(=O)[C@@]3(O)C(O)=C1C2=O [Minocycline]
intracellular uptake of minocycline [3]: decrease in intracellular uptake of minocycline is observed as the concentration of a divalent cation, such as Mg^2+ increases

CN(C)[C@@H]1C(O)=C(C(N)=O)C(=O)[C@@]2(O)C(O)=C3C(=O)c4c(O)cccc4[C@@](C)(O)[C@H]3[C@H](O)[C@@H]12 [oxytetracycline]
solubility (text summary of Table 36) [2]: remains insoluble in the presence of divalent cations, such as Mg^2+, at low pH

Triton-x
Hemolysis of RBCs in solution relative to water [4]: 97.82%
